According to patent US6737383B1, “Herbicidal oxadiazolidines” (priority 1999, dated 2004):

Key:
duck salad = experiment: Test B flood test duck salad; type: in vivo, Heteranthera limosa
Summary of the method: (§1)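 Plants were grown to the 2-leaf stage before treatment with test chemical, then held in a greenhouse for twelve to sixteen days. Injury was visually rated against untreated controls on a 0–10 scale, where 0 is no effect and 10 is complete control.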

morningglory = experiment: Test B pre/postemergence morningglory; type: in vivo, Ipomoea hederacea
Summary of the method: (§2)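 Herbicidal effect was estimated by eye on a ten-point control scale after plants spent twelve to sixteen days in a greenhouse following soil or foliar treatment. Foliar sprays targeted plants at one to four leaves; all doses were formulated in a non-phytotoxic solvent with surfactant.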

corn = experiment: Test B pre/postemergence corn; type: in vivo, Zea mays
Summary of the method: as §2

bedstraw = experiment: Test B pre/postemergence bedstraw; type: in vivo, Galium aparine; settings: Preemergence
Summary of the method: as §2

pigweed = experiment: Test B pre/postemergence pigweed; type: in vivo, Amaranthus retroflexus
Summary of the method: as §2

blackgrass = experiment: Test B pre/postemergence blackgrass; type: in vivo, Alopecurus myosuroides
Summary of the method: as §2

surinam grass = experiment: Test B pre/postemergence surinam grass; type: in vivo, Brachiaria decumbens
Summary of the method: as §2

rice = experiment: Test B flood test rice; type: in vivo, Oryza sativa
Summary of the method: as §1

smallflower flatsedge = experiment: Test B flood test smallflower flatsedge; type: in vivo, Cyperus difformis
Summary of the method: as §1

crabgrass = experiment: Test B pre/postemergence crabgrass; type: in vivo, Digitaria sanguinalis
Summary of the method: as §2

wild oat = experiment: Test B pre/postemergence wild oat; type: in vivo, Avena fatua
Summary of the method: as §2

cocklebur = experiment: Test B pre/postemergence cocklebur; type: in vivo, Xanthium strumarium
Summary of the method: as §2

purple nutsedge = experiment: Test B pre/postemergence purple nutsedge; type: in vivo, Cyperus rotundus
Summary of the method: as §2

velvetleaf = experiment: Test B pre/postemergence velvetleaf; type: in vivo, Abutilon theophrasti
Summary of the method: as §2

rape = experiment: Test B pre/postemergence rape; type: in vivo, Brassica napus
Summary of the method: as §2

bamyardgrass = experiment: Test B flood test barnyardgrass; type: in vivo, Echinochloa crus-galli
Summary of the method: as §1

soybean = experiment: Test B pre/postemergence soybean; type: in vivo, Glycine max
Summary of the method: as §2

giant foxtail = experiment: Test B pre/postemergence giant foxtail; type: in vivo, Setaria faberii
Summary of the method: as §2

sugar beet = experiment: Test B pre/postemergence sugar beet; type: in vivo, Beta vulgaris
Summary of the method: as §2

wheat = experiment: Test B pre/postemergence wheat; type: in vivo, Triticum aestivum
Summary of the method: as §2

[1] = Rate 62 g/ha, flood test species, Pre-emergence, visual evaluation after twelve to sixteen days
[2] = Rate 125 g/ha, under heading Pre-emergence, flood test species, visual evaluation after twelve to sixteen days
[3] = Rate 250 g/ha, Pre-emergence (flood test species), scale 0 to 10, 0 is no effect, 10 is complete control
[4] = Rate 500 g/ha, Pre-emergence section of Table B, 0 to 10 scale (0 no effect, 10 complete control)
[5] = Postemergence, Rate 62 g/ha, scale 0 to 10, 0 is no effect, 10 is complete control
[6] = Postemergence, Rate 250 g/ha, scale of 0 to 10, 0 is no effect, 10 is complete control
[7] = Preemergence, Rate 62 g/ha, scale of 0 to 10 where 0 is no effect and 10 is complete control
[8] = Preemergence, Rate 125 g/ha, scale of 0 to 10 where 0 is no effect and 10 is complete control
[9] = Preemergence, Rate 250 g/ha, scale 0 to 10 (0 no effect, 10 complete control)
[10] = Preemergence, Rate 500 g/ha, scale of 0 to 10 where 0 is no effect and 10 is complete control
[11] = Postemergence, Rate 125 g/ha, scale of 0 to 10 where 0 is no effect and 10 is complete control
[12] = Rate 500 g/ha, Postemergence, scale 0 to 10, 0 is no effect, 10 is complete control

## C#CC=CC(C)(C)n1c(=O)on(C(=O)N(c2ccccc2)C(C)C)c1=O [Compound 655]
Duck salad; [1]
  Plant response rating, Ducksalad (0 to 10 scale, 0 is no effect, 10 is complete control): 0
Duck salad; [2]
  Ducksalad plant response rating (0 to 10 scale, 0 is no effect, 10 is complete control): 0
Duck salad; [3]
  Ducksalad plant response rating: 0
Duck salad; [4]
  Ducksalad plant response rating: 0
morningglory; [5]
  Plant response rating, Morningglory: 9
morningglory; [6]
  Morningglory plant response rating: 9
morningglory; [7]
  Morningglory plant response rating: 0
morningglory; [8]
  Morningglory plant response rating: 0
morningglory; [9]
  Plant response rating, Morningglory: 0
morningglory; [10]
  Plant response rating, Morningglory: 0
corn; [5]
  Plant response rating, Corn: 0
corn; [11]
  Corn plant response rating: 0
corn; [6]
  Corn plant response rating: 0
corn; [7]
  Corn plant response rating: 0
corn; [8]
  Corn plant response rating: 0
corn; [9]
  Plant response rating, Corn: 0
corn; [10]
  Plant response rating, Corn: 0
corn; [12]
  Corn plant response rating: 0
bedstraw; Rate 62 g/ha, scale of 0 to 10 where 0 is no effect and 10 is complete control
  Bedstraw plant response rating: 0
bedstraw; Rate 125 g/ha, scale of 0 to 10 where 0 is no effect and 10 is complete control
  Bedstraw plant response rating: 0
bedstraw; Rate 250 g/ha, scale 0 to 10 (0 no effect, 10 complete control)
  Plant response rating, Bedstraw: 0
bedstraw; Rate 500 g/ha, scale of 0 to 10 where 0 is no effect and 10 is complete control
  Plant response rating, Bedstraw: 0
pigweed; [5]
  Plant response rating, Redroot pigweed: 1
pigweed; [11]
  Redroot pigweed plant response rating: 2
pigweed; [7]
  Redroot pigweed plant response rating: 0
pigweed; [8]
  Redroot pigweed plant response rating: 2
pigweed; [9]
  Plant response rating, Redroot pigweed: 2
pigweed; [10]
  Plant response rating, Redroot pigweed: 4
pigweed; [12]
  Redroot pigweed plant response rating: 7
blackgrass; [5]
  Plant response rating, Blackgrass: 0
blackgrass; [11]
  Blackgrass plant response rating: 0
blackgrass; [6]
  Blackgrass plant response rating: 0
blackgrass; [7]
  Blackgrass plant response rating: 0
blackgrass; [8]
  Blackgrass plant response rating: 0
blackgrass; [9]
  Plant response rating, Blackgrass: 2
blackgrass; [10]
  Plant response rating, Blackgrass: 3
blackgrass; [12]
  Blackgrass plant response rating: 3
Surinam grass; [5]
  Plant response rating, B. signalgrass: 0
Surinam grass; [11]
  Plant response rating, B. signalgrass: 0
Surinam grass; [6]
  B. signalgrass plant response rating: 2
Surinam grass; [7]
  B. signalgrass plant response rating: 0
Surinam grass; [8]
  B. signalgrass plant response rating: 0
Surinam grass; [9]
  Plant response rating, B. signalgrass: 0
Surinam grass; [10]
  Plant response rating, B. signalgrass: 0
Surinam grass; [12]
  B. signalgrass plant response rating: 2
rice; [1]
  Plant response rating, Rice (0 to 10 scale, 0 is no effect, 10 is complete control): 0
rice; [2]
  Rice plant response rating (0 to 10 scale, 0 is no effect, 10 is complete control): 0
rice; [3]
  Rice plant response rating: 0
rice; [4]
  Rice plant response rating: 0
Smallflower flatsedge; [1]
  Plant response rating, S. Flatsedge (0 to 10 scale, 0 is no effect, 10 is complete control): 0
Smallflower flatsedge; [2]
  S. Flatsedge plant response rating (0 to 10 scale, 0 is no effect, 10 is complete control): 0
Smallflower flatsedge; [3]
  S. Flatsedge plant response rating: 0
Smallflower flatsedge; [4]
  S. Flatsedge plant response rating: 0
crabgrass; [5]
  Plant response rating, Crabgrass: 1
crabgrass; [11]
  Crabgrass plant response rating: 8
crabgrass; [6]
  Crabgrass plant response rating: 8
crabgrass; [8]
  Crabgrass plant response rating: 8
crabgrass; [9]
  Plant response rating, Crabgrass: 8
crabgrass; [10]
  Plant response rating, Crabgrass: 9
crabgrass; [12]
  Crabgrass plant response rating: 9
Wild oat; [5]
  Plant response rating, Wild oats: 0
Wild oat; [11]
  Wild oats plant response rating: 0
Wild oat; [7]
  Wild oats plant response rating: 0
Wild oat; [8]
  Wild oats plant response rating: 0
Wild oat; [9]
  Plant response rating, Wild oats: 0
Wild oat; [10]
  Plant response rating, Wild oats: 0
Wild oat; [12]
  Wild oats plant response rating: 1
cocklebur; [5]
  Plant response rating, Cocklebur: 0
cocklebur; [11]
  Cocklebur plant response rating: 0
cocklebur; [6]
  Cocklebur plant response rating: 0
cocklebur; [7]
  Cocklebur plant response rating: 0
cocklebur; [8]
  Cocklebur plant response rating: 0
cocklebur; [9]
  Plant response rating, Cocklebur: 0
cocklebur; [10]
  Plant response rating, Cocklebur: 0
cocklebur; [12]
  Cocklebur plant response rating: 0
Purple nutsedge; [5]
  Plant response rating, Nutsedge: 0
Purple nutsedge; [11]
  Nutsedge plant response rating: 0
Purple nutsedge; [7]
  Nutsedge plant response rating: 0
Purple nutsedge; [8]
  Nutsedge plant response rating: 0
Purple nutsedge; [9]
  Plant response rating, Nutsedge: 0
Purple nutsedge; [10]
  Plant response rating, Nutsedge: 0
velvetleaf; [5]
  Plant response rating, Velvetleaf: 0
velvetleaf; [11]
  Velvetleaf plant response rating: 0
velvetleaf; [7]
  Velvetleaf plant response rating: 0
velvetleaf; [8]
  Velvetleaf plant response rating: 0
velvetleaf; [9]
  Plant response rating, Velvetleaf: 0
velvetleaf; [10]
  Plant response rating, Velvetleaf: 0
velvetleaf; [12]
  Velvetleaf plant response rating: 0
rape; [5]
  Plant response rating, Rape: 0
rape; [11]
  Rape plant response rating: 2
rape; [7]
  Rape plant response rating: 0
rape; [8]
  Rape plant response rating: 0
rape; [9]
  Plant response rating, Rape: 0
rape; [10]
  Plant response rating, Rape: 0
rape; [12]
  Rape plant response rating: 3
bamyardgrass; [1]
  Plant response rating, Barnyardgrass (0 to 10 scale, 0 is no effect, 10 is complete control): 0
bamyardgrass; [2]
  Barnyardgrass plant response rating (0 to 10 scale, 0 is no effect, 10 is complete control): 0
bamyardgrass; [3]
  Barnyardgrass plant response rating: 0
bamyardgrass; [4]
  Barnyardgrass plant response rating: 0
soybean; [5]
  Plant response rating, Soybean: 2
soybean; [11]
  Soybean plant response rating: 2
soybean; [7]
  Soybean plant response rating: 0
soybean; [8]
  Soybean plant response rating: 0
soybean; [9]
  Plant response rating, Soybean: 0
soybean; [10]
  Plant response rating, Soybean: 0
soybean; [12]
  Soybean plant response rating: 4
Giant foxtail; [5]
  Plant response rating, Giant foxtail: 1
Giant foxtail; [11]
  Giant foxtail plant response rating: 7
Giant foxtail; [7]
  Giant foxtail plant response rating: 3
Giant foxtail; [8]
  Giant foxtail plant response rating: 9
Giant foxtail; [9]
  Plant response rating, Giant foxtail: 9
Giant foxtail; [10]
  Plant response rating, Giant foxtail: 9
Giant foxtail; [12]
  Giant foxtail plant response rating: 9
Sugar beet; [5]
  Plant response rating, Sugarbeets: 0
Sugar beet; [11]
  Sugarbeets plant response rating: 0
Sugar beet; [7]
  Sugarbeets plant response rating: 0
Sugar beet; [8]
  Sugarbeets plant response rating: 0
Sugar beet; [9]
  Plant response rating, Sugarbeets: 0
Sugar beet; [10]
  Plant response rating, Sugarbeets: 0
Sugar beet; [12]
  Sugarbeets plant response rating: 2
wheat; [5]
  Plant response rating, Wheat: 0
wheat; [11]
  Wheat plant response rating: 0
wheat; [7]
  Wheat plant response rating: 0
wheat; [8]
  Wheat plant response rating: 0
wheat; [9]
  Plant response rating, Wheat: 0
wheat; [10]
  Plant response rating, Wheat: 0
wheat; [12]
  Wheat plant response rating: 0
